| melting point | Compound |
| --- | --- |
| 197 to 198 °C | CC1(C)OC(=S)Nc2ccc(-c3cccc(F)c3F)cc21 [Example 48, 6-(2,3-Difluorophenyl)-4,4-dimethyl-1,4-dihydro-2H-3,1-benzoxazine-2-thione] |
| 225 to 227 °C | N#Cc1cc(-c2ccc3c(c2)C2(CCCCC2)OC(=S)N3)cs1 [Example 23, 4-(1,2-Dihydro-2-thioxospiro[4H-3,1-benzoxazin-4,1-cyclohexan]-6-yl)-2-thiophenecarbonitrile] |
| 206 to 208 °C | CC1(C)OC(=S)Nc2ccc(-c3cc(Cl)cc(Cl)c3)cc21 [Example 32, 6-(3,5-Dichlorophenyl)-4,4-dimethyl-1,4-dihydro-2H-3,1-benzoxazine-2-thione] |
| 249 to 251 °C | CC1(C)OC(=S)Nc2ccc(-c3cc(Cl)cc(C#N)c3)cc21 [Example 38, 3-Chloro-5-(4,4-dimethyl-2-thioxo-1,4-dihydro-2H-3,1-benzoxazin-6-yl)benzonitrile] |
| 221 to 222 °C | CC1(C)OC(=S)Nc2ccc(-c3cc(F)cc(Br)c3)cc21 [Example 55, 6-(3-Bromo-5-fluorophenyl)-4,4-dimethyl-1,4-dihydro-2H-3,1-benzoxazine-2-thione] |
| 232 to 233 °C | N#Cc1ccc(-c2ccc3c(c2)C2(CCCCC2)OC(=S)N3)s1 [Example 60, 5-(1,2-Dihydro-2-thioxospiro[4H-3,1-benzoxazine-4,1-cyclohexan]-6yl)-2-thiophenecarbonitrile] |
| 148 to 150 °C | CCC1(CC)OC(=S)Nc2ccc(-c3cccc(Cl)c3)cc21 [Example 51, 6-(3-Chlorophenyl)-4,4-diethyl-1,4-dihydro-2H-3,1-benzoxazine-2-thione] |
| 235 to 237 °C | N#Cc1cc(F)cc(-c2ccc3c(c2)C2(CCCCC2)OC(=S)N3)c1 [Example 30, 3-(1,2-Dihydro-2-thioxospiro[4H-3,1-benzoxazine-4,1-cyclohexan]-6-yl)-5-fluorobenzonitrile] |
| 191 to 193 °C | CC1(C)OC(=S)Nc2ccc(-c3cccc(Br)c3)cc21 [Example 65, 6-(3-Bromophenyl)-4,4-dimethyl-1,4-dihydro-2H-3,1-benzoxazine-2-thione] |
| 216 to 217 °C | CC1(C)OC(=S)Nc2c(Br)cc(-c3cc(F)cc(C#N)c3)cc21 [Example 49, 3-(8-Bromo-4,4-dimethyl-2-thioxo-1,4-dihydro-2H-3,1-benzoxazin-6-yl)-5-fluorobenzonitrile] |
| 214 to 216 °C | CC1(C)OC(=S)Nc2ccc(-c3coc(C#N)c3)cc21 [Example 63, 4-(4,4-Dimethyl-2-thioxo-1,4-dihydro-2H-3,1-benzoxazin-6-yl)-2-furonitrile] |
| 222 to 224 °C | N#Cc1cccc(-c2ccc3c(c2)C2(CCCCC2)OC(=S)N3)c1 [Example 58, 3(1,2-Dihydro-2-thioxospiro[4H-3,1-benzoxazine4,1-cyclohexan]-6-yl)benzonitrile] |
| 194 to 195 °C | CC1(C)OC(=S)Nc2ccc(-c3cccc(F)c3)cc21 [Example 42, 6-(3-Fluorophenyl)-4,4-dimethyl-1,4-dihydro-2H-3,1-benzoxazine-2-thione] |
| 171 to 172 °C | CC1(C)OC(=S)Nc2ccc(-c3ccccc3Cl)cc21 [Example 53, 6-(2-Chlorophenyl)-4,4-dimethyl-1,4-dihydro-2H-3,1-benzoxazine-2-thione] |
| 261 to 262 °C | CC1(C)OC(=S)Nc2ccc(-c3ccc(C#N)[nH]3)cc21 [Example 18, 5(4,4-Dimethyl-2-thioxo-1,4-dihydro-2H-3,1-benzoxazin-6-yl)-1H-pyrrole-2-carbonitrile] |
| 194 to 195 °C | CC1(C)OC(=S)Nc2ccc(-c3sccc3C#N)cc21 [Example 66, 2-(4,4-Dimethyl-2-thioxo-1,4-dihydro-2H-3,1-benzoxazin-6-yl)thiophene-3-carbonitrile] |
| 199 to 201 °C | Cc1cc(C#N)sc1-c1ccc2c(c1)C1(CCCCC1)OC(=S)N2 [Example 59, 5-(1,2-Dihydro-2-thioxospiro [4H-3,1-benzoxazine-4,1-cyclohexan]-6-yl)-4-methyl-2-thiophenecarbonitrile] |
| 192 to 193 °C | CC1(C)OC(=S)Nc2ccc(-c3cc(Br)cc(OC(F)(F)F)c3)cc21 [Example 29, 6-(3-Bromo-5trifluoromethoxyphenyl)-4,4-dimethyl-1,4-dihydro-2H-3,1-benzoxazine-2-thione] |
| 252 to 253 °C | CC1(C)OC(=S)Nc2ccc(-c3cncc(Br)c3)cc21 [Example 26, 6-(5Bromopyridin-3-yl)-4,4-dimethyl-1,4-dihydro-2H-3,1-benzoxazine-2-thione] |
| 212 to 213 °C | CCn1c(C#N)ccc1-c1ccc2c(c1)C(C)(C)OC(=S)N2 [Example 23, 5-(4,4-dimethyl-2-thioxo-1,4-dihydro-2H-3,1-benzoxazin-6-yl)-1-ethyl-1H-pyrrole-2-carbonitrile] |
| 224 to 226 °C | CC1(C)OC(=S)Nc2ccc(-c3cccc([N+](=O)[O-])c3)cc21 [Example 50, 4,4-Dimethyl-6-(3-nitrophenyl)-1,4-dihydro-2H-3,1-benzoxazine-2-thione] |

| melting point | Compound |
| --- | --- |
| 183 to 184 °C | Cc1cc(Br)cc(-c2ccc3c(c2)C(C)(C)OC(=S)N3)c1 [Example 28, 6-(3-Bromo-5-methylphenyl)-4,4-dimethyl-1,4-dihydro-2H-3,1-benzoxazine-2-thione] |
| 150 to 151 °C | C=CCC1(C)OC(=S)Nc2ccc(-c3cccc(Cl)c3)cc21 (stereo not drawn) [Example 37, 4-Allyl-6-(3-chlorophenyl)-4-methyl-1,4-dihydro-2H-3,1-benzoxazine2-thione] |
| 242 to 244 °C | CC1(C)OC(=S)Nc2ccc(-c3ccc(C#N)s3)cc21 [Example 56, 5-(4,4-Dimethyl-2-thioxo-1,4-dihydro-2H-3,1-benzoxazin-6-yl)thiophene-2-carbonitrile] |
| 165 to 167 °C | CC(C)(C)OC(=O)n1c(C#N)ccc1-c1ccc2c(c1)C(C)(C)OC(=S)N2 [Example 17, tert-Butyl 2-cyano-5-(4,4-dimethyl-2-thioxo-1,4-dihydro-2H-3,1-benzoxazin-6-yl)-1H-pyrrole-1-carboxylate] |
| 221 to 223 °C | CC1(C)OC(=S)Nc2ccc(-c3ccc(F)cc3)cc21 [Example 46, 6(4-Fluorophenyl)-4,4-dimethyl-1,4-dihydro-2H-3,1-benzoxazine-2-thione] |
| 174 to 175 °C | CCCCc1cc(C#N)sc1-c1ccc2c(c1)C(C)(C)OC(=S)N2 [Example 64, 4-Butyl-5-(4,4-dimethyl-2-thioxo-1,4-dihydro-2H-3,1-benzoxazin-6-yl)thiophene-2-carbonitrile] |
| 201 to 202 °C | COc1cc(C#N)cc(-c2ccc3c(c2)C(C)(C)OC(=S)N3)c1 [Example 41, 3-(4,4-Dimethyl-2-thioxo-1,4-dihydro2H-3,1-benzoxazin-6-yl)-5-methoxybenzonitrile] |
| 258 to 259 °C | CC1(C)OC(=S)Nc2ccc(-c3cc(C#N)cs3)cc21 [Example 22, 5-(4,4-Dimethyl-2-thioxo-1,4-dihydro-2H-benzo[d][1,3]oxazin-6-yl)thiophene-3-carbonitrile] |
| 224 to 225 °C | CC1(C)OC(=S)Nc2ccc(-c3cc(F)cc(F)c3)cc21 [Example 39, 6-(3,5-Difluorophenyl)-4,4-dimethyl-1,4-dihydro-2H-3,1-benzoxazine-2-thione] |
| 209 to 211 °C | CC1(C)OC(=S)Nc2ccc(-c3ccc(F)c(F)c3)cc21 [Example 45, 6-(3,4-Difluorophenyl)-4,4-dimethyl-1,4-dihydro-2H-3,1-benzoxazine-2-thione] |
| 170 to 171 °C | COc1cc(F)cc(-c2ccc3c(c2)C(C)(C)OC(=S)N3)c1 [Example 40, 6-(3-Fluoro-5methoxyphenyl)-4,4-dimethyl-1,4-dihydro-2H-3,1-benzoxazine-2-thione] |
| 221 to 222.5 °C | CC1(C)OC(=S)Nc2ccc(Br)cc21 [Example 10, 6-Bromo-4,4-dimethyl-1,4-dihydro-benzo[d][1,3]oxazin-2-thione] |
| 173 to 174 °C | CC1OC(=S)Nc2ccc(-c3cccc(F)c3)cc21 (stereo not drawn) [Example 15, 6-(3-fluorophenyl)-4-methyl-1,4-dihydro-2H-3,1-benzoxazine-2-thione] |
| 171 to 173 °C | CC1(C)OC(=S)Nc2ccc(-c3ccccc3F)cc21 [Example 44, 6-(2-Fluorophenyl)-4,4-dimethyl-1,4-dihydro-2H-3,1-benzoxazine-2-thione] |
| 230 to 231 °C | Cc1cc(C#N)cc(-c2ccc3c(c2)C(C)(C)OC(=S)N3)c1 [Example 31, 3-(4,4-Dimethyl-2-thioxo-1,4-dihydro-2H-3,1-benzoxazin-6-yl)-5-methylbenzonitrile] |
| 180 to 181 °C | CCC1(CC)OC(=S)Nc2ccc(-c3cccc([N+](=O)[O-])c3)cc21 [Example 35, 4,4Diethyl-6-(3-nitrophenyl)-1,4-dihydro-2H-3,1-benzoxazine2-thione] |
| 200 °C (dec.) | CC1(C)OC(=S)Nc2ccc(-c3ccc(C#N)o3)cc21 [Example 34, 5-(4,4-Dimethyl-2-thioxo-1,4-dihydro-2H-3,1-benzoxazin-6-yl)-2-furonitrile] |
| 142 to 143 °C | COc1cccc(-c2ccc3c(c2)C(C)(C)OC(=S)N3)c1 [Example 52, 6-(3-Methoxyphenyl)-4,4-dimethyl-1,4-dihydro-2H-3,1-benzoxazine-2-thione] |
| 196 to 197 °C | CC1(C)OC(=S)Nc2ccc(-c3ccc(F)c(Cl)c3)cc21 [Example 61, 6-(3-Chloro-4-fluorophenyl)-4,4-dimethyl-1,4-dihydro-2H-3,1-benzoxazine-2-thione] |
| 215 to 217 °C | CC1(C)OC(=S)Nc2ccc(-c3cccc(CC#N)n3)cc21 [Example 19, [6-(4,4-dimethyl-2-thioxo-1,4-dihydro-2H-3,1-benzoxazin-6-yl)pyridin-2-yl]acetonitrile] |
| 202 to 203 °C | CC1(c2ccccc2)OC(=S)Nc2ccc(-c3cccc(Cl)c3)cc21 (stereo not drawn) [Example 36, 6-(3-Chlorophenyl)-4-methyl-4-phenyl-1,4-dihydro-2H-3,1-benzoxazine-2-thione] |
